Assay results from US20230355558A1 (priority 2022, published 2023).
Entries after “also recorded” stand apart in the source; their conditions may differ.

Tests used:
[1] = system: NDV (Newcastle disease virus) strain R2B
[2] = Fibrin clot swelling at 3% loading, with and without plasmin; conditions: for fibrin clot swelling in degrading medium prior to degradation: medium containing plasmin; for fibrin clot swelling in non-degrading medium: no plasmin
plasmin = plasmin (Homo sapiens, UniProt P00747); experiment: Fibrin clot degradation by plasmin (gravimetric, protease inhibition); format: biochemical; conditions: for protease inhibition activity (inhibiting plasmin mediated degradation of fibrin clots): 0-1 mM in fibrin clots, plasmin in PBS buffer; for protease inhibition activity (inhibiting plasmin mediated degradation of fibrin clots) / resistance against fibrin clot degradation by plasmin: up to 48 hours; for resistance against fibrin clot degradation by plasmin: about 0.1 mM, triplicate; for plasmin-mediated degradation of fibrin clots at 3% loading: about 3% loading in fibrin clots; for protease inhibition activity compared with TA (conclusion): fibrin clot / plasmin system; for degradation of the clot: about 16 hours
Chain of plasmin (P00747 581-810): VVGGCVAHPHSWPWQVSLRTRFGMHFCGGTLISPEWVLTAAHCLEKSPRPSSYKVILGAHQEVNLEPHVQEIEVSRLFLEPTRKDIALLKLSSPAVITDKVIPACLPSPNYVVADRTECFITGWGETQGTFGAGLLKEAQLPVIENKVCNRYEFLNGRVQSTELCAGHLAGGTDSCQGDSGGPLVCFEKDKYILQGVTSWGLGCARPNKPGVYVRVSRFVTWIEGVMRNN
Chain of plasmin (P00747 97-580): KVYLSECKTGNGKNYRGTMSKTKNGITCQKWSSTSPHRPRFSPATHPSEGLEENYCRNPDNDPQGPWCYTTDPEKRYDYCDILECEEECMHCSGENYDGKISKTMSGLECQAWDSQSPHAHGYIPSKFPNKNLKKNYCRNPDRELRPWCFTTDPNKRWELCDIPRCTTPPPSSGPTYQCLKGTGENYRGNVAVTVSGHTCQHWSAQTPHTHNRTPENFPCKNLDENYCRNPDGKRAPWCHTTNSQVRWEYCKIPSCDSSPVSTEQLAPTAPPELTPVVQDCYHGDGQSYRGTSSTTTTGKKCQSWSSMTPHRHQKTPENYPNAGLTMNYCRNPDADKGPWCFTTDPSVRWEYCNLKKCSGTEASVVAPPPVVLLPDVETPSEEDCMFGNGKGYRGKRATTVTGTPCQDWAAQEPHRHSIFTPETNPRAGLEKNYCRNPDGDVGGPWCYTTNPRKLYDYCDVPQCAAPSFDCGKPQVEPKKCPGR

[3] = Qualitative test for relative solubility
[4] = system: Human neuroblastoma cell line Sh-Sy5y; experiment: Cellular toxicity assay (MTT assay), neurotoxicity; conditions: Sh-Sy5y cells, 1 ug/mL, 24 hours

SMILES	antiviral activity versus virus control [1]	toxicity to cells treated with compound only [1]	fibrin clot swelling in degrading medium prior to degradation [2]	fibrin clot swelling in non-degrading medium [2]	protease inhibition activity (inhibiting plasmin mediated degradation of fibrin clots) (plasmin; pH 7.4, 37° C.)	resistance against fibrin clot degradation by plasmin (plasmin; pH 7.4, 37° C.)	plasmin-mediated degradation of fibrin clots at 3% loading (plasmin)	protease inhibition activity compared with TA (conclusion) (plasmin)	concentration at which efficacious against fibrin clot degradation (plasmin; plasmin, pH 7.4, 37° C.) [mM]	water solubility [3]	solvent needed to dissolve in buffer relative to water ([3]; pH 7.4 100 mM phosphate buffer versus water)	solubility in methanol or propanol ([3]; room temperature)	cytotoxicity or neurotoxicity compared with TA [4]	degradation of the clot (plasmin; 0.1 mM, plasmin, pH 7.4, 37° C.) [%]	degradation of the clot (plasmin; 1 mM, plasmin, pH 7.4, 37° C.)
NCC1CCC(C(=O)[O][Ca][O]C(=O)C2CCC(CN)CC2)CC1 (stereo not shown) [Ca-TA, Calcium bis-tranexamate]	no significant difference between the virus control and treated	no toxicity was observed	more than 50%	more than 50%	dose-dependent protease inhibition activity; also recorded: exhibit protease inhibition activity	effective resistance	inhibited plasmin-mediated degradation of the fibrin clots for a longer period	comparable to that of TA	≤ 0.1	water soluble	approximately four times as much solvent	not soluble to a significant degree	comparable cytotoxicity or neurotoxicity results as that of TA		
COCC(=O)NCC1CCC(C(=O)O)CC1 (stereo not shown) [MTA, N-(methoxy-acetamido) tranexamic acid]	no significant difference between the virus control and treated				exhibit protease inhibition activity			eliminates or significantly reduces protease inhibition activity; also recorded: reduced protease inhibition activity than TA		water soluble			reduced neurotoxicity than TA	100	about 85.1+/−0.6%
NCC1CCC(C(=O)O)CC1 (stereo not shown) [TA, Tranexamic acid, reference compound]	no significant difference between the virus control and treated		degraded without swelling	did not swell		effective resistance	inhibited plasmin-mediated degradation of the fibrin clots for a longer period								
